Here are results for 1 substance from paper PMC12867150, “A fungi-derived cyclic peptide enhances Th9-mediated antitumor immunity by targeting ZAP70 and SREBP1” (The Journal of Clinical Investigation, 2025).

For one test, the system named is Th9 cells. The test can be described thus: Screening of 65 natural compounds for IL-9 production by Th9 cells (Figure 1B). The format is cell-based, mouse. As to conditions: 10 μM; result in words. An excerpt: To identify natural small molecules that enhance the antitumor potential of Th9 cells, we constructed a chemically and structurally defined small-molecule library derived from endophytic fungi isolated from G. lucidum and Periplaneta americana (Supplemental Table 1; supplemental material available online with this article; https://doi.org/10.1172/JCI196907DS1). This library comprised 65 structurally diverse metabolites classified into 11 distinct scaffold families, with each compound structurally elucidated via NMR spectroscopy and verified against previously reported spectral data. To functionally evaluate the immunomodulatory potential of these compounds, we systematically screened the library for their ability to promote Th9 cell differentiation, assessed by intracellular IL-9 expression using flow cytometry (Figure 1, A and B).
Naive CD4^+ T cells were isolated from the spleens of C57BL/6J or CD45.1^+ OT-II mice using the MojoSort Mouse CD4 Naive T Cell Isolation Kit (BioLegend, catalog 480040), following the manufacturer’s protocol. Purified cells were cultured in RPMI-1640 medium supplemented with 10% FBS, 1% penicillin-streptomycin, and 0.1% β-mercaptoethanol (Gibco, catalog 21985023). […]

In another test the test system is Raji-luciferase tumor. The test can be described thus: Raji-luciferase xenograft, bioluminescence tumor radiance (Figure 8J-K). The format is in vivo, NSG mice. As to conditions: EpA-treated human Th9 CAR T cells 2 × 10^6 i.v.; n = 5; result in words. An excerpt:
Representative plots (A) and quantification (B) (n = 4). (C) Quantitative PCR analysis of IL9, IRF4, and SPI1 mRNA expression in human Th9 cells (n = 3). (D) Flow-cytometric analysis of mitochondrial membrane potential in human Th9 cells (n = 3). (E) Luciferase-based assay analysis of intracellular ATP levels in human Th9 cells (n = 5). (F) Flow-cytometric analysis of phosphorylated ZAP70 in human Th9 cells (n = 3). (G) Flow-cytometric analysis of TNF-α expression in human Th9 cells (n = 4). (H) Cytotoxicity assay of EpA-treated or control CD19 CAR Th9 cells against Raji lymphoma target cells at indicated effector-to-target (E/T) ratios (n = 3). (I) Schematic diagram of the in vivo Raji-luciferase xenograft model in NSG mice receiving control or EpA-treated human Th9 CAR T cells. (J and K) Representative bioluminescence imaging (J) and quantification of tumor radiance (K) in NSG mice at indicated time points after adoptive transfer. […] Statistical significance was determined using 2-tailed unpaired Student’s t test (B–H), 2-way ANOVA followed by Šidák’s post hoc test (K), and log-rank test (L). […]
For xenograft models, M-NSG mice were intravenously inoculated with 1 × 10^6 Raji-CD19 tumor cells. […] Tumor progression and immune cell infiltration were subsequently monitored according to experimental endpoints.
On the technique in general: In xenograft studies the graft and the host belong to different species.

Take anteiso-C15 Leu7 surfactin [EpA]: the “Th9 polarization in screen” value with Th9 cells is “most potent enhancer of Th9 polarization”. In addition, the tumor burden result in the test on Raji-luciferase tumor is reported as “markedly reduced tumor burden”.
